row,Compound,melting point [°C]
1,O=C(O)c1cnn(-c2ccc(Cl)cc2)c1C1CC1,186 to 187
2,NC(=O)CNC(=O)c1cccc(-c2cccc3oc(Cc4cccc(C(F)(F)F)c4)cc23)c1,105 to 106
3,C=C(C)CNC(=O)N1CC(Oc2ccc(C(F)(F)F)cc2)C1,101 to 102
4,COC(=O)C1=C(C)NC(C)=C(C)C1c1ccccc1 (stereo not given),120
5,COc1ccc(N2CCOCC2)c2sc(NC(=O)C[C@H]3CC[C@@H](OC(C)=O)C3)nc12 (relative stereo),172 to 173
6,O=C(Nc1cccc(F)c1)NC1CCN(S(=O)(=O)c2cccc(C(F)(F)F)c2)CC1,86 to 88
7,Nc1c(F)c(N2CCC(C(N)c3cccnc3)C2)c(F)c2c1c(=O)c(C(=O)O)cn2C1CC1F (stereo not given),123 to 126
8,CCOP(=O)(OCC)C(Sc1cc(C(C)(C)C)c(O)c(C(C)(C)C)c1)P(=O)(OCC)OCC,78 to 80
9,COc1ccc(C2=CCN(CCCN3c4cccc5cccc(c45)S3(=O)=O)CC2)cc1,178
10,COc1ccc(C(=O)N2CCCC2=O)cc1O,123 to 125
11,CCOC(=O)C(C)OCc1cc2cc(Cl)ccc2n1S(=O)(=O)c1cc(OC)ccc1OC (stereo not given),118 to 120
12,COc1cc(N)c(Cl)cc1C(=O)N(C)OC,134 to 135
13,C=CCc1c[nH]c2c([N+](=O)[O-])cccc2c1=O,242
14,CCC(C#N)Oc1cccc([N+](=O)[O-])c1Cl (stereo not given),69 to 71
15,CC(C)C1(C)NC(c2ncc(Br)cc2C(=O)O)=NC1=O (stereo not given),206 to 208
16,CC1(C)CC(=C(c2ccc(O)cc2)c2ccc(I)cc2)CC(C)(C)C1,148 to 149
17,NS(=O)(=O)NCc1csc2ccccc12,101
18,O=C(N1CCc2cccc(O)c2CC1)C(F)(F)F,183 to 186
19,CC(=O)c1cc2c(s1)C(C)(C)CCC2(C)C,53 to 55
20,C=CC(c1ccccc1)c1cc(C)c2c(c1O)C(=O)CC2 (stereo not given),131 to 132
21,CCCCC1=C([N+](=O)[O-])C(c2cccc(Cl)c2Cl)c2c[nH]nc2N1 (stereo not given),220

row,Compound,melting point [°C]
1,CC1CC(=O)NN=C1c1ccc(N2CCC(C(=O)O)CC2)c([N+](=O)[O-])c1 (stereo not given),214
2,CCOC(=O)c1cn(C)c2cc(Br)ccc2c1=O,189 to 191
3,C/C=C/C/C=C/CCCCCCCC(=O)Nc1nc(CC(=O)O)cs1,101 to 102
4,C[C@H](CN(O)C(N)=O)NC(=O)OC(C)(C)C,156 to 160
5,CC(C)C1(C)CC(=O)CC(C)(C)N1 (stereo not given),47 to 53
6,C[C@H]1CN(c2c(F)cc3c(=O)c(C(=O)O)cn(CCF)c3c2Cl)C[C@H]1N (relative stereo),234 to 236
7,O=C(NCc1cccc([N+](=O)[O-])c1)Nc1ccccc1,153 to 156
8,O=c1cc[nH]c2c([N+](=O)[O-])cc(C(F)(F)F)cc12,153 to 156
9,CC(=O)N(C(C)=O)c1cc2c(cc1Cl)C(=O)C1(CCOC1=O)O2 (stereo not given),181 to 185
10,O=CN1CCN(c2ncc3c(=O)c(C(=O)ON4C(=O)CCC4=O)c[nH]c3n2)CC1,> 300
11,CN(C)C=CC(=O)c1ccc(C(F)(F)F)cc1[N+](=O)[O-],101
12,O=C(O)c1cn(CC2CC2)c2cc(Cl)ccc12,219 to 220
13,CN1CCN(S(=O)(=O)c2cccc(NC(=O)c3cnn4c(C(F)F)cc(-c5ccc(Cl)cc5)nc34)c2)CC1,147
14,COC(NC(C)=O)(C(=O)O)C(Br)Br (stereo not given),143 to 144
15,CC(Cn1cc[nH]c1=NC#N)c1ccc(OC(F)F)c(OC2CCOC2)c1 (stereo not given),67.8
16,CON=C1CN(c2c(F)cc3c(=O)c(C(=O)O)cn(C4CC4)c3c2F)CC12CN(C(=O)OC(C)(C)C)C2,255 to 256
17,CC(CCC(=O)C(C)(C)O)C1CCC2C3=CC=C4CC(O)CCC4(C)C3CCC21C (stereo not given),150 to 152
18,C[C@@H](O)Cn1ncc2ccc(O)c(Br)c21,134 to 136
19,CN1C(=O)N(c2cc(Cl)cc(Cl)c2)C(=O)[C@]12CN(Cc1ccccc1)C[C@H]2c1ccc(-c2cncnc2)cc1 (relative stereo),228
20,COc1cccc(C(N)c2sccc2S(=O)(=O)Nc2onc(C)c2Br)c1 (stereo not given),70 to 73
21,NC(=O)CSC(=O)c1ccco1,126 to 128

row,Compound,melting point [°C]
1,COC(=O)CCC/C=C\CN1C(=O)c2ccccc2C1=O,47 to 49
2,O=C(NCCCCn1ccnc1)c1ccc(Cl)c(Cl)c1,86 to 88
3,NC1=NS(=O)N=C1NCCCNc1ccc(Br)cn1 (stereo not given),215 to 216
4,CN(C)c1ncnc2c(NC3OC(CO)C(O)C3O)ncnc12 (stereo not given),231
5,COc1c(Br)csc1C(=O)O,191 to 192
6,CCCCCS(=O)(=O)NC(=O)/C=C/c1ccc(OCCC(C)(C)O)cc1Oc1ncc(C(F)(F)F)cc1Cl,136
7,Cc1cc(Br)nc(Br)c1,77
8,O=C(O)C1=Cc2cc(Cl)c(Oc3ccccc3Cl)cc2OC1C(F)(F)F (stereo not given),199
9,Oc1ccc(Nc2nc(NCc3ccco3)nc(Nc3ccc4[nH]ccc4c3)n2)cc1,258 to 260
10,CCOC(=O)c1cnn(-c2ccc(O)c(C#N)c2)c1,233 to 234
11,CCc1nnc(Cc2c(Cl)cncc2Cl)c2ccc(OC)cc12,136 to 138
12,COc1ccccc1-c1cc(C(C)(C)C)c(O)c(C(C)(C)C)c1,98.5 to 100
13,CC(=O)OC(C)c1cccc2cc(C(C)=O)oc12 (stereo not given),82 to 83
14,CCc1c(C(=O)C(N)=O)c2c(OCC(=O)N(C)OCc3ccccc3)cccc2n1Cc1ccccc1,186 to 188
15,CCCCC[C@H]1CC[C@H](CCc2ccc(O)c(C#N)c2C#N)CC1,100 to 102
16,CC(C)(C)OC(=O)N1CCC(C#N)(c2ccc(Cl)c(Cl)c2)CC1,142 to 145
17,O=C(C1CCN(c2ccncc2)CC1)N1CCN(S(=O)(=O)c2ccc3ccccc3c2)C(Cc2ccccc2)C1 (stereo not given),186 to 188
18,NCC(=O)NC(Cc1ccncc1)c1ccccc1 (stereo not given),145 to 147
19,CCCSc1nc2cc(C)c(C)cc2[nH]1,122 to 123
20,O=C(O)c1ccc(OCCCCCCc2cccc(O)c2O)c(Cl)c1,157 to 160
21,CCN(C(=O)N1CCN(c2cc(C)cc(C)c2)CC1)c1nc(C)c(C)nc1OC,68 to 70

# Results, then the compound that gave them:
row,melting point [°C],Compound
1,253 to 254,CCOC(=O)c1cn(C)c2cc(-n3cccc3)c(F)cc2c1=O
2,198 to 199,CC(=O)NC1(c2ccc(Cl)c(C(F)(F)F)c2)CCN(Cc2ccccc2)CC1
3,188,CSc1cnc(NC(=O)C(Cc2ccc(F)cc2)c2ccc(S(C)(=O)=O)cc2)cn1 (stereo not given)
4,108,COC(=O)C(C)(C)OCc1cc2nc(Cl)ccc2n1S(=O)(=O)c1cccc2ccccc12
5,189 to 190,NC(=O)c1nnn(Cc2ccccc2F)c1N
6,348,O=c1[nH]c2ccc(-c3cc(=O)c4ccccc4o3)cc2o1
7,167 to 169,COc1cc(NC2CCCC2)n2nc(-c3ccc(F)cc3)c(-c3ccnc(NC4CCCC4)n3)c2c1
8,205 to 207,COC(=O)c1ccc(OC)c2oc3ccnc(O)c3c12
9,95.1,CCOc1cc(-c2ccc(C(F)(F)F)cc2)nc(-c2cccc(C(F)(F)F)c2)c1
10,247 to 250,O=C1N(Cc2ccc(=O)[nH]c2)c2ccccc2C12COc1cc3c(cc12)OCO3 (stereo not given)
11,76 to 82,CCS(=O)(=O)n1cc(C(=O)C2CSC(c3cccnc3)N2)c2ccc(OCc3ccccc3)cc21 (stereo not given)
12,167 to 170,CN(C)c1nc(=O)c2cccnc2n1Cc1ccc(F)cc1
13,233 to 236,Nc1cnc(-c2ccc(F)cc2)n(CC(=O)NC(Cc2ccccc2)C(=O)c2nc3ccccc3o2)c1=O (stereo not given)
14,224 to 225,Fc1ccc(-n2ccc3cc(-c4nnn[nH]4)ccc32)cc1
15,246 to 247,O=c1cc(-c2ccc(O)cc2)oc2ccc(CO)cc12
16,218,COc1cc2c(-c3cc4cccnc4[nH]3)cn(CCN3CCOCC3)c2cc1OC
17,123,COc1ccc2oc(Cc3cccnc3)c(CC#N)c2c1
18,> 275,CCC(=O)N[C@@H](CC)c1nc2c(C(F)(F)F)cccc2c(O)c1C(=O)Nc1nccs1
19,268 to 270,c1ccc(CCn2cc3c(ncn4nc(-c5ccco5)nc34)n2)cc1

row,melting point [°C],Compound
1,209 to 214,COc1ccc2nc(COc3ccc(CC(SC(C)=O)C(=O)O)cc3)n(C)c2c1 (stereo not given)
2,108 to 110,O=C(CCc1ccccc1)N[C@H](Cc1ccc(Oc2ccccc2)cc1)[C@@H](O)c1ccc(F)cc1 (racemic)
3,95 to 97,COc1ccc(-c2ccc3nnc(-c4ccccc4OC)n3n2)cc1OC
4,123,Cc1nc(Nc2ccc(F)cc2)nc(Br)c1C
5,212 to 216,CC(=O)NC(C)(C)c1ccc(-c2nc(Nc3ccc(F)cc3)ncc2C#N)cc1
6,170 to 171,O=C1c2ccccc2C(=O)N1C/C=C/COc1ccc(-n2ccnc2)cc1
7,139 to 141,CCOC(=O)c1nn(-c2ccccc2)c2c1CSc1ccccc1-2
8,210 to 212,CCCc1nn(C)c2c(=O)[nH]c(-c3ccc(OC)c(OC)c3)nc12
9,77 to 78,O=S(=O)(c1ccc(N2CCNCC2)cc1)n1ccc2cc(F)ccc21
10,308,O=c1c(-c2cccc(Cl)c2)coc2cc(O)c(O)cc12
11,225 to 226,Cn1c(=O)nc(-c2ccccc2Cl)c2ccsc21
12,229 to 233,CN(C)CCS(=O)(=O)NC(=O)CCn1c2ccc(O)cc2c2c3c(c(-c4ccccc4Cl)cc21)C(=O)NC3=O
13,109 to 111,COc1ccccc1N1CCN(Cc2ccccc2)CC1=O
14,202 to 203,CC(=NNC(=O)c1ccccc1)c1cccc(Cl)c1O
15,230,O=C(O)Cc1cc(C(=O)Cc2ccccc2Cl)ccc1O
16,173 to 175,CCOC(=O)Cn1c(N)nc(-c2ccccc2)c1-c1ccccc1
17,266 to 267,O=S1(=O)CCN2C=CC=C(c3ccc(Oc4ccc(F)cc4)cc3)C2=N1
18,75 to 76,COc1ccc(-c2nc(SCC=O)sc2-c2ccc(OC)cc2)cc1

# Source: a melting point compilation (Tetko et al.; mined from patent text by program, amines drawn as free bases though some values may be those of a salt)
